This note sets out measurements from publication PMC8398451, “Molecular Engineering of Curcumin, an Active Constituent of Curcuma longa L. (Turmeric) of the Family Zingiberaceae with Improved Antiproliferative Activity” (Plants, 2021).

The target of one experiment is T1, EGFR (Homo sapiens, UniProt P00533).
T1 construct: tested for anti-EGFR activity in human A431 cells, which express high levels of EGFR protein; endogenous in cells; host or cells: human A431 cells
The experiment in a line: Spectrophotometric assay for EGFR tyrosine kinase inhibition in A431 cells. It counts as cell-based. As to conditions: absorbance at 540 nm.

The test system of another experiment is HOP-92. The experiment in a line: NCI antiproliferative SRB assay, Non-Small Cell Lung Cancer panel. It is filed as cell-based. To be noted: for GI50 / CC50: Homo sapiens; for CC50: read-out: LC50 (the source's name).

Like-named read-outs stand apart in the source and are kept apart here.

T1 sequence (P00533 25-1210): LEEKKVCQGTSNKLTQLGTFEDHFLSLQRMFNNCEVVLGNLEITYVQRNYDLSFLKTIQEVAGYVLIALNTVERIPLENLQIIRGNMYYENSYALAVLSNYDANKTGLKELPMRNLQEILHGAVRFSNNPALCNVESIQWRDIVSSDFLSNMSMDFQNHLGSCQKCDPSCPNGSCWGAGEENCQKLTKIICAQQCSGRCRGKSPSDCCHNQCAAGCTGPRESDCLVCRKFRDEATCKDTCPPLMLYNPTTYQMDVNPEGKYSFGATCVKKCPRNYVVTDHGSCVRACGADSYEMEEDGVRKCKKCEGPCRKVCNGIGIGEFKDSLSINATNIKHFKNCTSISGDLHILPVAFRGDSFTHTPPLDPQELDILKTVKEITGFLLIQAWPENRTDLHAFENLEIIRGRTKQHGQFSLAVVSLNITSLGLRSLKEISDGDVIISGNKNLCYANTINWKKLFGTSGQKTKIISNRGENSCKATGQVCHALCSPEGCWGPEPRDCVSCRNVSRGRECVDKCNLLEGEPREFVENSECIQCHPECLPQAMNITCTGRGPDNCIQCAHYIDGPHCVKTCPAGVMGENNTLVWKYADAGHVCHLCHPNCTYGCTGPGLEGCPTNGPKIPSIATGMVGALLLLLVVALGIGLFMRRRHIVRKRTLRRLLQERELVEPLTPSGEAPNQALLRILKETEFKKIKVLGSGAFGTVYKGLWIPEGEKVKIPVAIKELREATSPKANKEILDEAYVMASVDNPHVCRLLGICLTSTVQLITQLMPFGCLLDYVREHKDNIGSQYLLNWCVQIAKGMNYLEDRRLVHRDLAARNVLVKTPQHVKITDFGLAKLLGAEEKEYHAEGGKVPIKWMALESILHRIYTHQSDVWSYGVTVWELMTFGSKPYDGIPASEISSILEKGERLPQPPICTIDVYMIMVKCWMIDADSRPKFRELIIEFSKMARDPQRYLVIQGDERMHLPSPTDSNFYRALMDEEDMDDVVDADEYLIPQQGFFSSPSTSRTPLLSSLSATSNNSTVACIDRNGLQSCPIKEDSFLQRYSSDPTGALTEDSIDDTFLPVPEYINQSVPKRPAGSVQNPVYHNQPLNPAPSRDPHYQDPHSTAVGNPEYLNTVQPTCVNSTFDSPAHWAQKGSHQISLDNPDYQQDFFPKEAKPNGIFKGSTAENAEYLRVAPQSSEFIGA

On to `COc1ccc(NC(=O)n2nc(/C=C/c3ccc(O)c(OC)c3)cc2/C=C/c2ccc(O)c(OC)c2)cc1` [3b], for which the IC50 (as a rule, the point on the concentration scale where inhibition reaches its midpoint) against EGFR stood at 3.89 µM. For the same compound, in the experiment on HOP-92 (5-dose 0.01-100 µM), the TGI – broadly, the concentration at which net growth stops – is greater than 100 µM and the CC50 was greater than 100 µM. Besides, the GI50 (in general, the concentration that inhibits growth by half) with HOP-92 (5-dose 0.01-100 µM, read-out: GI50) was found to be 7.77 µM. Moreover, in the experiment with HOP-92 (one dose 10 µM), the “%GI” value came out at 10.93% and the “GP (growth percent)” value is listed as 89.07.
On EGFR, `COc1cc(/C=C/c2cc(/C=C/c3ccc(O)c(OC)c3)n(C(=O)Nc3ccc(C(F)(F)F)cc3)n2)ccc1O` [3c] gave an IC50 of 4.18 µM. Further, in the experiment with HOP-92 (5-dose 0.01-100 µM), the TGI is 6.79 µM and the CC50 is greater than 100 µM. Also, halving of growth with HOP-92 (GI50) required 2.35 µM.
